Reference: the supplement of paper PMC10307832

How the values were obtained:
Experiment in all cases: relative viability (nuclei count vs DMSO), 5 days (fraction); higher = more cells survive
[1] = tested on: NCI-H2009
Method in brief: (§1)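 Relative viability divides the nuclei count in treated wells by that in vehicle wells. Lung cancer cell lines were seeded in 1536-well plates, dosed by pin tool the next day, and fixed and stained after 5 days in one step with final 0.05% Triton X-100, 1% formaldehyde and 1 ug/ml Hoechst. Dosing was a single drug or a fixed anchor-drug dose plus five library-drug doses (not always all listed) in √10 steps, and values are medians of duplicate plates imaged at 4×.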

[2] = tested on: NCI-H838
Method in brief: as §1

[3] = tested on: HCC-78
Method in brief: as §1

[4] = tested on: PC-3 [JPC-3]
Method in brief: as §1

[5] = tested on: NCI-H2405
Method in brief: as §1

[6] = tested on: HCC-366
Method in brief: as §1

[7] = tested on: SW 1573
Method in brief: as §1

[8] = tested on: NCI-H1355
Method in brief: as §1

[9] = tested on: NCI-H520
Method in brief: as §1

[10] = tested on: NCI-H2126
Method in brief: as §1

[11] = tested on: UMC-11
Method in brief: as §1

[12] = tested on: NCI-H1437
Method in brief: as §1

[13] = tested on: LU99A
Method in brief: as §1

[14] = tested on: HARA
Method in brief: as §1

[15] = tested on: NCI-H2347
Method in brief: as §1

[16] = tested on: NCI-H441
Method in brief: as §1

[17] = tested on: NCI-H1734
Method in brief: as §1

[18] = tested on: HCC-44
Method in brief: as §1

[19] = tested on: NCI-H358
Method in brief: as §1

[20] = tested on: BEN
Method in brief: as §1

[21] = tested on: NCI-H727
Method in brief: as §1

[22] = tested on: 201T
Method in brief: as §1

COCC1(CO)C(=O)C2CCN1CC2 (stereo not given) [PRIMA-1MET] + O=C(CCCCCCC(=O)Nc1ccccc1)NO [Vorinostat] (partner 1 µM)
relative viability ([1]; first compound 0.2 µM): 0.752
relative viability ([1]; first compound 0.6325 µM): 0.801
relative viability ([1]; first compound 2 µM): 0.668
relative viability ([1]; first compound 6.325 µM): 0.5
relative viability ([1]; first compound 20 µM): 0.381
relative viability ([2]; first compound 0.2 µM): 0.769
relative viability ([2]; first compound 0.6325 µM): 0.691
relative viability ([2]; first compound 2 µM): 0.694
relative viability ([2]; first compound 6.325 µM): 0.762
relative viability ([2]; first compound 20 µM): 0.546
relative viability ([3]; first compound 0.2 µM): 0.624
relative viability ([3]; first compound 0.6325 µM): 0.407
relative viability ([3]; first compound 2 µM): 0.392
relative viability ([3]; first compound 6.325 µM): 0.403
relative viability ([3]; first compound 20 µM): 0.102
relative viability ([4]; first compound 0.2 µM): 0.964
relative viability ([4]; first compound 0.6325 µM): 0.579
relative viability ([4]; first compound 2 µM): 0.76
relative viability ([4]; first compound 6.325 µM): 1.03
relative viability ([4]; first compound 20 µM): 0.747
relative viability ([5]; first compound 0.2 µM): 1.03
relative viability ([5]; first compound 0.6325 µM): 0.945
relative viability ([5]; first compound 6.325 µM): 0.934
relative viability ([5]; first compound 20 µM): 0.106
relative viability ([6]; first compound 0.2 µM): 0.596
relative viability ([6]; first compound 0.6325 µM): 0.252
relative viability ([6]; first compound 2 µM): 0.249
relative viability ([6]; first compound 6.325 µM): 0.336
relative viability ([6]; first compound 20 µM): 0.0291
relative viability ([7]; first compound 0.2 µM): 0.83
relative viability ([7]; first compound 0.6325 µM): 0.553
relative viability ([7]; first compound 2 µM): 0.429
relative viability ([7]; first compound 6.325 µM): 0.0463
relative viability ([7]; first compound 20 µM): 0.0325
relative viability ([8]; first compound 0.2 µM): 0.648
relative viability ([8]; first compound 0.6325 µM): 0.632
relative viability ([8]; first compound 2 µM): 0.556
relative viability ([8]; first compound 6.325 µM): 0.671
relative viability ([8]; first compound 20 µM): 0.58
relative viability ([9]; first compound 0.2 µM): 0.807
relative viability ([9]; first compound 2 µM): 0.621
relative viability ([9]; first compound 6.325 µM): 0.652
relative viability ([9]; first compound 20 µM): 0.149
relative viability ([10]; first compound 0.2 µM): 0.784
relative viability ([10]; first compound 0.6325 µM): 0.796
relative viability ([10]; first compound 2 µM): 0.606
relative viability ([10]; first compound 6.325 µM): 0.765
relative viability ([10]; first compound 20 µM): 0.788
relative viability ([11]; first compound 0.2 µM): 0.422
relative viability ([11]; first compound 0.6325 µM): 0.358
relative viability ([11]; first compound 2 µM): 0.385
relative viability ([11]; first compound 6.325 µM): 0.477
relative viability ([11]; first compound 20 µM): 0.479
relative viability ([12]; first compound 0.2 µM): 0.951
relative viability ([12]; first compound 0.6325 µM): 0.685
relative viability ([12]; first compound 2 µM): 0.792
relative viability ([12]; first compound 6.325 µM): 0.939
relative viability ([12]; first compound 20 µM): 0.776
relative viability ([13]; first compound 0.2 µM): 0.628
relative viability ([13]; first compound 0.6325 µM): 0.342
relative viability ([13]; first compound 2 µM): 0.54
relative viability ([13]; first compound 6.325 µM): 0.436
relative viability ([13]; first compound 20 µM): 0.113
relative viability ([14]; first compound 0.2 µM): 0.544
relative viability ([14]; first compound 0.6325 µM): 0.266
relative viability ([14]; first compound 6.325 µM): 0.587
relative viability ([14]; first compound 20 µM): 0.499
relative viability ([15]; first compound 0.2 µM): 0.574
relative viability ([15]; first compound 0.6325 µM): 0.656
relative viability ([15]; first compound 2 µM): 0.348
relative viability ([15]; first compound 6.325 µM): 0.551
relative viability ([15]; first compound 20 µM): 0.327
relative viability ([16]; first compound 0.2 µM): 0.689
relative viability ([16]; first compound 0.6325 µM): 0.6
relative viability ([16]; first compound 2 µM): 0.887
relative viability ([16]; first compound 6.325 µM): 0.96
relative viability ([16]; first compound 20 µM): 0.553
relative viability ([17]; first compound 0.2 µM): 1.08
relative viability ([17]; first compound 0.6325 µM): 0.718
relative viability ([17]; first compound 2 µM): 0.777
relative viability ([17]; first compound 6.325 µM): 0.536
relative viability ([17]; first compound 20 µM): 0.0676
relative viability ([18]; first compound 0.2 µM): 1.08
relative viability ([18]; first compound 0.6325 µM): 1.03
relative viability ([18]; first compound 2 µM): 1.18
relative viability ([18]; first compound 6.325 µM): 1.18
relative viability ([18]; first compound 20 µM): 1.06
relative viability ([19]; first compound 0.2 µM): 0.82
relative viability ([19]; first compound 0.6325 µM): 0.695
relative viability ([19]; first compound 2 µM): 0.669
relative viability ([19]; first compound 6.325 µM): 0.786
relative viability ([19]; first compound 20 µM): 0.163
relative viability ([20]; first compound 0.2 µM): 0.664
relative viability ([20]; first compound 0.6325 µM): 0.389
relative viability ([20]; first compound 6.325 µM): 0.571
relative viability ([20]; first compound 20 µM): 0.613
relative viability ([21]; first compound 0.2 µM): 0.732
relative viability ([21]; first compound 0.6325 µM): 0.394
relative viability ([21]; first compound 6.325 µM): 1.17
relative viability ([21]; first compound 20 µM): 0.689
relative viability ([22]; first compound 0.2 µM): 1.15
relative viability ([22]; first compound 0.6325 µM): 0.676
relative viability ([22]; first compound 2 µM): 0.797
relative viability ([22]; first compound 6.325 µM): 0.991
relative viability ([22]; first compound 20 µM): 0.98
